Source: US20180002312A1, “TETRA- AND PENTASUBSTITUTED BENZIMIDAZOLIUM COMPOUNDS USEFUL IN THE TREATMENT OF RESPIRATORY DISEASES” (Boehringer Ingelheim International GmbH, priority 2015, published 2018)
Read-outs that look alike come from different tables or passages of the source.

Experiments:
[1] = molecular target: T1, ENaC (Epithelial Sodium Channel) (Mus musculus, UniProt Q61180+Q9WU38+Q9WU39); assay: Ussing Chamber assay: inhibition of amiloride sensitive short circuit current in M-1 cells; assay type: cell-based
T1 construct: Mouse kidney M-1 cells were cultivated in DMEM; endogenous in cells; host or cells: mouse kidney M-1 cells (cortical collecting duct line), dexamethasone-treated, grown on transwell filters
T1 sequence (Q61180 1-699): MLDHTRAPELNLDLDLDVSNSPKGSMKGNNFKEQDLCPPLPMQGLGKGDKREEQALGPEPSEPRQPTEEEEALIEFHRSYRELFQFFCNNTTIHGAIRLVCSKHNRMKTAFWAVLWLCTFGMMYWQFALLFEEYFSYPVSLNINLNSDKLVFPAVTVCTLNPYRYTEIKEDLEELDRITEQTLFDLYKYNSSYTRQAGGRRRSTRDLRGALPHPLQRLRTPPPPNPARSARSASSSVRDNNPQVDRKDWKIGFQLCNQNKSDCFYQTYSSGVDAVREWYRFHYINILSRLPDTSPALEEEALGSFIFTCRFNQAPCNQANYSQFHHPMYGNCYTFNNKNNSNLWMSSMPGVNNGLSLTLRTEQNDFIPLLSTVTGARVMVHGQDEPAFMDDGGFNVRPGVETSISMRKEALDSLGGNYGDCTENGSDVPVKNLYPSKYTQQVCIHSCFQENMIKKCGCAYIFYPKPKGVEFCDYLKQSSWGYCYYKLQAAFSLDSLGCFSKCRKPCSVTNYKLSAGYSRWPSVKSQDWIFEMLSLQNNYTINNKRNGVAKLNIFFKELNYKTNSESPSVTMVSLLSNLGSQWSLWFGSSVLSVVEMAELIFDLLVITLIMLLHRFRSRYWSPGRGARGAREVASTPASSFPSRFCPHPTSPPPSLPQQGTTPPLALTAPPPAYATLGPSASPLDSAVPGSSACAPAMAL
T1 sequence (Q9WU38 1-638): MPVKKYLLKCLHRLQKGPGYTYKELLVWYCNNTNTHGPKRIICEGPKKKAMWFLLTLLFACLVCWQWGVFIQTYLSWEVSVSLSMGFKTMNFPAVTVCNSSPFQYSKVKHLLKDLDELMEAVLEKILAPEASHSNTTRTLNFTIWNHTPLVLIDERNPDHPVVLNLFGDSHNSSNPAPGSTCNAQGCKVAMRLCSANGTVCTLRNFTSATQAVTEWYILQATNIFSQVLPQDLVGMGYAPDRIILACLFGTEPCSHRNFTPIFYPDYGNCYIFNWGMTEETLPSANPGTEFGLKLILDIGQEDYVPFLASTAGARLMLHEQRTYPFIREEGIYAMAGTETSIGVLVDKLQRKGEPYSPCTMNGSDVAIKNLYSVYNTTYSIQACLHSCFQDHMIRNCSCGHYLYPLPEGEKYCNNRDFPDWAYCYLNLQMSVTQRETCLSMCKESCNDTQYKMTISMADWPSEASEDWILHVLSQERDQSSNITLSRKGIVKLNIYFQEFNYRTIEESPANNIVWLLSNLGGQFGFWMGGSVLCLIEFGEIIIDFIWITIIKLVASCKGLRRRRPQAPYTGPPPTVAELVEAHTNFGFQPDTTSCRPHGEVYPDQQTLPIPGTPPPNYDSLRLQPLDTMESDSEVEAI
T1 sequence (Q9WU39 1-655): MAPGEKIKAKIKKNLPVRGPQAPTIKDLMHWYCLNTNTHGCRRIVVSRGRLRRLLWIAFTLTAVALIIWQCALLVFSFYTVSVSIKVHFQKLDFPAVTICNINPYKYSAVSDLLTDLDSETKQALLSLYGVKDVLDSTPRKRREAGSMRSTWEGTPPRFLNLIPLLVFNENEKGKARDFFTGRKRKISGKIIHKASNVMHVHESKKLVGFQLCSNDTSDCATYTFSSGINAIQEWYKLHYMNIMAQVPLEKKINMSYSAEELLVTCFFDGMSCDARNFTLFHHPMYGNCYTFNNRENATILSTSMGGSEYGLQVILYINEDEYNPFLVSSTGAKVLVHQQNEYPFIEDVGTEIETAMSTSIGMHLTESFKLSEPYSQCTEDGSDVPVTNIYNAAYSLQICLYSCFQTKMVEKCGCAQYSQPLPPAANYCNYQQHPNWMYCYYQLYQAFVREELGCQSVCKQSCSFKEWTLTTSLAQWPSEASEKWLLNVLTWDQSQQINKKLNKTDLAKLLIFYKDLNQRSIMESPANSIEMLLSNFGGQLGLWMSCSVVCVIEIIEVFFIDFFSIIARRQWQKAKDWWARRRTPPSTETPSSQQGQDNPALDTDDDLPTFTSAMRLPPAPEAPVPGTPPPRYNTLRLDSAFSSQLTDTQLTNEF
Protocol: Ussing Chamber: Mouse kidney M-1 cells were cultivated in DMEM containing 5% FCS and 5 μM dexamethasone for 10 to 12 days on polyester transwell filters. Filters were inserted into a teflon-coated well-plate which fit into the ussing chamber system. Prior to measurement the medium of M-1 cells was replaced with Caco-2 transport buffer (Invitrogen, Germany). During measurements, the Ussing chamber temperature was kept at 37° C. Short circuit currents (I_sc) were measured in the voltage-clamp mode with the software package Lab View for data acquisition and analysis. The transepithelial electrical resistance (TEER) was determined by the application of voltage steps of ±5 mV every 5 sec. Compounds were administered at a final concentration of 3 μM or at increasing concentrations (1-3-10 μM) to the apical solution. At the end of each experiment the amiloride sensitive I_SC was measured by adding 3 μM amiloride to the apical compartment. Results are expressed as inhibition in percent of the amiloride effect or as IC50.

[2] = Permeability in CALU-3 cells; assay type: in vitro ADME; conditions: human, CALU-3 monolayers, pH 7.4, 37° C., 10 μM compound; for Papp A→B at 90 min, 10 μM: apical-to-basal; for Papp B→A at 90 min, 10 μM: basal-to-apical
Protocol: Permeability in CALU-3 Cells:
Permeability measurements across polarized, confluent CALU-3 cell monolayers grown on permeable filter supports are used to provide information on the potential of a compound to pass the lung epithelium.
CALU-3 cells (1-2×10^5 cells/1 cm^2 area) are seeded on filter inserts (Costar transwell polycarbonate filters, 0.4 μm pore size) and cultured (for 10-12 days DMEM) until tight monolayers are formed. Compounds of interest are dissolved in appropriate solvent (DMSO, 10 mM stock solution). […] The transport solution (TL) is applied to the apical or basolateral donor side for measuring A-B or B-A permeability (3 filter replicates), respectively. The receiver side contains the same buffer as the donor side. After 30 min of accommodation, samples are collected at the start t0=0 min and at the end of the experiment tn=90 min from the donor and at 0, 30, 60, and 90 min also from the receiver chamber. Volume removed is […] by HTP-4 buffer. The compound concentration in the samples is measured by HPLC-MS/MS or scintillation counting. The permeability coefficient (Papp) and efflux ratio are calculated according to: Papp [cm/s]=(concentration receiver [nM]*volume receiver [mL]/time interval [sec])*(1/filter area)*(1/donor concentration [nM]).

[3] = Ussing chamber, mouse kidney M-1 cells, short circuit current, apical administration, 37° C., read-out: IC50

Structure (SMILES) | IC50 [1, 3] | IC50 [1] | Papp A→B at 90 min, 10 μM [2] | Papp B→A at 90 min, 10 μM [2]
CCn1c(CNC(=O)c2nc(Cl)c(N)nc2N)[n+](CC2CCOCC2)c2ccc(OCC(=O)N(C)Cc3nc(C)ccc3[O-])cc21 [Example 1.06] | 1 nM |  |  | 
CCOP(=O)([O-])CCCCn1c(CNC(=O)c2nc(Br)c(N)nc2N)[n+](CC)c2ccc(O)cc21 [Example 6.01] |  | 25 nM |  | 
CC[n+]1c(CNC(=O)c2nc(Cl)c(N)nc2N)n(C[C@@H]2CCCO2)c2cc(OCC(=O)N3CC[S+]([O-])CC3)ccc21.O=C([O-])C(F)(F)F [Example 1.01] | 1 nM |  | 0.5 ×10⁻⁶ cm/s | 0.08 ×10⁻⁶ cm/s
CC[n+]1c(CNC(=O)c2nc(Cl)c(N)nc2N)n(C[C@@H]2CCCO2)c2cc(OCC(=O)NCc3ccccn3)ccc21.O=C([O-])C(F)(F)F [Example 2.01] | 1 nM |  | 0.03 ×10⁻⁶ cm/s | 0.05 ×10⁻⁶ cm/s
C[n+]1c(CNC(=O)c2nc(Cl)c(N)nc2N)n(C[C@@H]2CCCO2)c2cc(OCCO)ccc21.O=C([O-])C(F)(F)F [Example 1.04] | 3 nM |  | 0.3 ×10⁻⁶ cm/s | 0.2 ×10⁻⁶ cm/s
CC[n+]1c(CNC(=O)c2nc(Cl)c(N)nc2N)n(C[C@@H]2CCCO2)c2cc(OCC(=O)N3C[C@@H](O)[C@H](O)C3)ccc21 [Example 1.15] | 2 nM |  |  | 
CC[n+]1c(CNC(=O)c2nc(Cl)c(N)nc2N)n(CCOCCN2CCCCC2=O)c2cc(OCP(C)(C)=O)ccc21 [Example 1.16] | 87 nM |  |  | 
CCNC(=O)N1CCC(n2c(CNC(=O)c3nc(Cl)c(N)nc3N)[n+](CC)c3ccc(OCC(=O)NC4CCNCC4)cc32)CC1 [Example 3.02] | 3 nM |  |  | 
CCn1c(CNC(=O)c2nc(Cl)c(N)nc2N)[n+](CC2CCOCC2)c2ccc(OCC(=O)NCc3nc(C)ccc3[O-])cc21 [Example 1.07] | 2 nM |  |  | 
CCNC(=O)N1CCC(n2c(CNC(=O)c3nc(Cl)c(N)nc3N)[n+](CC)c3ccc(OCC(=O)NC4CCN(CC)CC4)cc32)CC1 [Example 4.02] | 2 nM |  |  | 
CC[n+]1c(CNC(=O)c2nc(Cl)c(N)nc2N)n(CC2CCOCC2)c2cc(OCCC[n+]3cc([O-])cc(OC)c3)c(Cl)cc21.O=C([O-])C(F)(F)F [Example 1.13] | 2 nM |  | 0.4 ×10⁻⁶ cm/s | 0.1 ×10⁻⁶ cm/s
CCn1c(CNC(=O)c2nc(Cl)c(N)nc2N)[n+](CC2CCOCC2)c2ccc(OCC(=O)N(Cc3ccccc3)Cc3nc(C)ccc3[O-])cc21 [Example 1.05] | 5 nM |  |  | 
CCN(Cc1ncccc1[O-])C(=O)COc1ccc2c(c1)n(CC)c(CNC(=O)c1nc(Cl)c(N)nc1N)[n+]2CC1CCOCC1 [Example 1.17] | 1 nM |  |  | 
CC[n+]1c(CNC(=O)c2nc(Cl)c(N)nc2N)n(CCCCP(=O)([O-])O)c2cc(O)ccc21 [Example 7.01] | 63 nM |  |  | 
CCn1c(CNC(=O)c2nc(Cl)c(N)nc2N)[n+](Cc2cccnc2)c2ccc(OCC(=O)N(C)C)cc21.O=C([O-])C(F)(F)F [Example 1.02] | 6 nM |  | 0.4 ×10⁻⁶ cm/s | 0.2 ×10⁻⁶ cm/s
CCNC(=O)N1CCC(n2c(CNC(=O)c3nc(Cl)c(N)nc3N)[n+](CC)c3ccc(OCC(=O)O)cc32)CC1 [Example 5.01] | 18 nM |  |  | 
CC[n+]1c(CNC(=O)c2nc(Cl)c(N)nc2N)n(CCOCCn2cc(C(=O)N(C)C)ccc2=O)c2cc(OCCO)ccc21 [Example 1.11] | 26 nM |  |  | 
Nc1nc(N)c(C(=O)NCc2n(C[C@@H]3CCCO3)c3cc(OCCO)ccc3[n+]2CCOCCO)nc1Cl [Example 1.09] | 3 nM |  |  | 
CCCCCCN1CCC(NC(=O)COc2ccc3c(c2)n(C2CCN(C(=O)NCC)CC2)c(CNC(=O)c2nc(Cl)c(N)nc2N)[n+]3CC)CC1 [Example 4.01] | 4 nM |  |  | 
CCn1c(CNC(=O)c2nc(Cl)c(N)nc2N)[n+](CC2CCOCC2)c2ccc(OCC(=O)N(Cc3nc(C)ccc3[O-])C[C@H](C)O)cc21 [Example 1.12] | 2 nM |  |  | 
CC[n+]1c(CNC(=O)c2nc(Cl)c(N)nc2N)n(C[C@@H]2CCCO2)c2cc(OCC(=O)N3CCN(C(=O)OCc4ccccc4)CC3)ccc21 [Example 1.14] | 7 nM |  |  | 
CCn1c(CNC(=O)c2nc(Cl)c(N)nc2N)[n+](Cc2cccc(C(=O)N3CC[S+]([O-])CC3)c2)c2ccc(OCCO)cc21.O=C([O-])C(F)(F)F [Example 1.08] | 16 nM |  | 0.1 ×10⁻⁶ cm/s | 0.09 ×10⁻⁶ cm/s
CC[n+]1c(CNC(=O)c2nc(Cl)c(N)nc2N)n(CCOCCn2ccccc2=O)c2cc(OCP(C)(C)=O)ccc21.O=C([O-])C(F)(F)F [Example 1.03] | 49 nM |  | 0.2 ×10⁻⁶ cm/s | 0.07 ×10⁻⁶ cm/s
